Assay results taken from the supplement of paper PMC10307832.

Experiments:
Experiment in all cases: relative viability (nuclei count vs DMSO), 5 days (fraction); higher = more cells survive
[1] = compound: CN(C)CC1=CC(=CC=C1)N=C(C2=CC=CC=C2)C3=C(NC4=C3C=CC(=C4)C(=O)N(C)C)O + CC(=O)c1c(C)c2cnc(Nc3ccc(N4CCNCC4)cn3)nc2n(C2CCCC2)c1=O [Palbociclib] (partner 0.5 µM)
Summary of the method: (§1)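 Each reported value is a median over duplicate plates. It expresses relative viability: treated-well nuclei count divided by vehicle-well nuclei count. Lung cancer cell lines in 1536-well plates were dosed by pin tool a day after seeding, alone with one drug or with a fixed anchor-drug dose plus five library-drug doses (not always all listed) in √10 steps, and nuclei were counted after 5 days.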

[2] = compound: CN(C)CC1=CC(=CC=C1)N=C(C2=CC=CC=C2)C3=C(NC4=C3C=CC(=C4)C(=O)N(C)C)O + Cc1nc(Nc2ncc(C(=O)Nc3c(C)cccc3Cl)s2)cc(N2CCN(CCO)CC2)n1 [Dasatinib] (partner 0.075 µM)
Summary of the method: as §1

[3] = compound: CN(C)CC1=CC(=CC=C1)N=C(C2=CC=CC=C2)C3=C(NC4=C3C=CC(=C4)C(=O)N(C)C)O + Nc1nc2[nH]cc(CCc3ccc(C(=O)N[C@@H](CCC(=O)O)C(=O)O)cc3)c2c(=O)[nH]1 [Pemetrexed] (partner 0.2 µM)
Summary of the method: as §1

[4] = compound: CN(C)CC1=CC(=CC=C1)N=C(C2=CC=CC=C2)C3=C(NC4=C3C=CC(=C4)C(=O)N(C)C)O + O=C(CCCCCCC(=O)Nc1ccccc1)NO [Vorinostat] (partner 1 µM)
Summary of the method: as §1

Cell Line	relative viability ([1]; first compound 0.08 µM)	relative viability ([1]; first compound 0.253 µM)	relative viability ([1]; first compound 0.8 µM)	relative viability ([1]; first compound 2.53 µM)	relative viability ([1]; first compound 8 µM)	relative viability ([2]; first compound 0.08 µM)	relative viability ([2]; first compound 0.253 µM)	relative viability ([2]; first compound 0.8 µM)	relative viability ([2]; first compound 2.53 µM)	relative viability ([2]; first compound 8 µM)	relative viability ([3]; first compound 0.08 µM)	relative viability ([3]; first compound 0.253 µM)	relative viability ([3]; first compound 0.8 µM)	relative viability ([3]; first compound 2.53 µM)	relative viability ([3]; first compound 8 µM)	relative viability ([4]; first compound 0.08 µM)	relative viability ([4]; first compound 0.253 µM)	relative viability ([4]; first compound 0.8 µM)	relative viability ([4]; first compound 2.53 µM)	relative viability ([4]; first compound 8 µM)
PC-14	0.474	0.412	0.635	0.614	0.537	0.289	0.273	0.324	0.247	0.197	0.13	0.13	0.147	0.15	0.135	0.576	0.675	0.833	0.687	0.592
RERF-LC-KJ	1.08	1.05	1.01	0.992	0.982	0.931	0.831	0.876	0.749	0.793	0.473	0.453	0.491	0.443	0.499	0.744	0.703	0.605	0.64	0.681
SK-LU-1	0.335	0.363	0.34	0.362	0.369	0.185	0.199	0.188	0.196	0.163	1.01	0.941	1.03	0.961	0.781	0.796	0.861	0.735	0.847	0.581
SK-MES-1	0.325	0.277	0.357	0.305	0.343	0.438	0.349	0.25	0.388	0.311	0.961	0.881	1	0.89	0.897	1.13	1.08	1.08	1.01	1.03
SW 900	0.517	0.481	0.527	0.569	0.622	0.364	0.582	0.55	0.622	0.573	0.439	0.495	0.497	0.535	0.445	0.56	0.495	0.452	0.606	0.606
SW 1573	0.323	0.42	0.367	0.34	0.317	0.538	0.794	0.589	0.436	0.383	0.823	0.83	0.987	0.792	0.768	0.616	1.08	0.958	0.744	0.55
UMC-11	0.351	0.311	0.326	0.306	0.291	0.507	0.414	0.45	0.445	0.407	0.779	0.752	0.839	0.714	0.736	0.318	0.399	0.41	0.364	0.34
